Experiments:
Type in all cases: in vivo
[1] = test system: tactile allodynia in ligated Chung rats; assay: Chung model (spinal nerve ligation, tactile allodynia, von Frey hairs); conditions: Chung rat, 30 min after administration
Description: One standard model for chronic pain involves the surgical ligation of the L5 (and optionally the L6) spinal nerves on one side in experimental animals. Rats recovering from the surgery gain weight and display a level of general activity similar to that of normal rats. However, these rats develop abnormalities of the foot, wherein the hindpaw is moderately everted and the toes are held together. More importantly, the hindpaw on the side affected by the surgery appears to become sensitive to pain from low-threshold mechanical stimuli, such as that producing a faint sensation of touch in a human, within about 1 week following surgery. […]
Tactile allodynia is measured prior to and 30 minutes after drug administration using von Frey hairs that are a series of fine hairs with incremental differences in stiffness. […] The applied force has been calculated to range from 0.41 to 15.1 grams. […] The 50% paw withdrawal threshold is determined using the method of Dixon, W. J., Ann. […] The post-drug threshold is compared to the pre-drug threshold and the percent reversal of tactile sensitivity is calculated based on a normal threshold of 15.1 grams.
Control rats are given the vehicle alone. Thirty (30) minutes following administration rats are brushed with Von Freys hairs and tactile allodynia is measured using the method of Dixon, as described above. […]

[2] = test system: allodynia induced by phenylephrine (PE); assay: Mouse phenylephrine (PE) model of allodynia
Description: (§1) In variants of this model, allodynia can be induced using 100 ng N-methyl-D-aspartate (NMDA) in DMSO intrathecally, or IP phenylephrine (PE) 100 ng/kg formulated in dH2O. In either model, the compounds are formulated in d-H2O and given in a volume of 1 ml/kg body weight for intraperitoneal (IP) dosing. Six mice per group are rendered allodynic by injection of one of the following agents: 300 ng/kg sulprostone in DMSO IP, 100 ng/kg phenylephrine (PE) in dH2O IP, or 100 ng NMDA in DMSO intrathecally (IT). Fifteen minutes before administration of the allodynia-inducing agents, the experimental mice are given 1 mg/kg NB-DNJ. Thirty (30) minutes following administration of NB-DNJ, the allodynic response is monitored as described by brushing the flank of each mouse with a paint brush. Five to six mice per group are rendered allodynic by injection of one of the following: 300 ng/kg sulprostone IP, 100 ng/kg phenylephrine (PE) IP, or 100 ng NMDA intrathecally (IT). Fifteen minutes prior to the induction of allodynia, the mice are given D-glucaro-delta-lactam IP at […], or 1 mg/kg. PE or NMDA-treated mice are given 1 mg/kg D-glucaro-delta-lactam IP.

[3] = test system: allodynia induced by N-methyl-D-aspartate (NMDA); assay: Mouse NMDA model of allodynia
Description: as §1, with “brush. Six mice per group are given one of the following: given 100 μg/kg NB-DNJ, 300 μg/kg NB-DNJ, 1 mg/kg NB-DNJ, or 3 mg/kg 1-deoxynojirimycin. After 15 minutes the mice are rendered allodynic by injection of 200 ng NMDA in DMSO IT. Starting thirty (30) minutes following administration of NB-DNJ, the allodynic response of each mouse is monitored by brushing the flank of the mouse with a paint brush.” for “brush.”

CCCCN1C[C@H](O)[C@@H](O)[C@H](O)[C@H]1CO [NB-DNJ, N-butyl-1-deoxy-nojirimycin]
analgesic activity (allodynic reversal) ([1]; 1 mg/kg and 3 mg/kg intraperitoneally, FIG. 5): analgesic | reversal of the allodynic response ([2]; 1 mg/kg given 15 min before PE 100 ng/kg IP, FIG. 1): no reversal | pain reduction at different doses ([3]; 100 μg/kg, 300 μg/kg, 1 mg/kg, 15 min before 200 ng NMDA IT, FIG. 2): dose response | reversal of the allodynic response ([3]; 1 mg/kg given 15 min before NMDA 100 ng IT, FIG. 1): significant reversal

O=C(O)[C@H]1NC(=O)[C@H](O)[C@@H](O)[C@@H]1O [D-glucaro-delta-lactam]
reversal of induced allodynia (reduction in allodynic response to Von Freys hair stimulus) ([1]; 1 mg/kg intraperitoneally, FIG. 6): approximately 70% | analgesic effect ([2]; 1 mg/kg IP, 15 min before PE 100 ng/kg IP, FIG. 4): able to achieve an analgesic effect | analgesic effect ([3]; 1 mg/kg IP, 15 min before NMDA 100 ng IT, FIG. 4): able to achieve an analgesic effect

— patent US7884115B2, “Methods and compositions for the treatment of pain and other neurological conditions” (Allergan, Inc., priority 2004, dated 2011)
